≈ marks a conversion by molar mass, not a printed value. Calls of active or inactive are those of the source. The calls are words filed in the database; no cut-off is given here.
Assays:
[1] = target: T1, Protein cereblon/Bromodomain-containing protein 4/DNA damage-binding protein 1 (Homo sapiens) (UniProt O60885+Q96SW2+Q16531); assay: Binding affinity to his-tagged CRBN/DDB1/GST-tagged BRD4 (49 to 170 residues)(unknown origin) assessed as ternary complex formation by measuring AUC incubated for 1 hr by luminescence based Alphascreen assay; type: protein assay
[2] = Metabolic stability in mouse liver microsomes assessed as half life; type: ADME, Microsome; details: liver microsomes
[3] = target: T2, Protein cereblon/Bromodomain-containing protein 4 (Homo sapiens, UniProt O60885+Q96SW2); assay: PROTAC activity at CRBN/Hibit-tagged BRD4 (unknown origin) expressed in HEK293 cells co-expressing LgBiT assessed as degradation of BRD4 incubated for 24 hrs by […] glo-max assay; type: cell-based
[4] = target: T2, Protein cereblon/Bromodomain-containing protein 4; assay: PROTAC activity at CRBN/Hibit-tagged BRD4 (unknown origin) expressed in HEK293 cells co-expressing LgBiT assessed as degradation of BRD4 incubated for 24 hrs by […] glo-max assay relative to control; type: cell-based
[5] = Half life in mouse at 50 mg/kg, ip; type: ADME, organism-based; details: in vivo
[6] = Kinetic aqueous solubility of the compound at pH 7.4; type: physicochemical; details: read-out: Kinetic_solubility
HEK293 = assay: Cytotoxicity against HEK293 cells expressing LgBiT fused HiBiT-BRD2 measured after 24 hrs by cell titer-glo assay; type: toxicity, cell-based; details: human, hek293, 24 h
[7] = Effect on MCL1 level in human MV4-11 cells assessed as fold change at 100 nM measured after 4 hrs; type: functional
[8] = Downregulation of BRD4 protein level in human MV4-11 cells at 100 nM incubated for 4 hrs relative to control; type: functional
[9] = Effect on CDC42EP3 level in human MV4-11 cells assessed as fold change at 100 nM measured after 4 hrs; type: functional
[10] = target: Protein cereblon (Homo sapiens) (UniProt Q96SW2); assay: Binding affinity to CRBN (unknown origin)
[11] = Cmax in female CD1 mouse at 10 mg/kg, po measured upto 24 hrs by LC-MS/MS analysis; type: ADME, organism-based; details: in vivo
[12] = Effect on BRD2 level in human MV4-11 cells assessed as fold change at 100 nM measured after 4 hrs; type: functional
[13] = target: T1, Protein cereblon/Bromodomain-containing protein 4/DNA damage-binding protein 1 (Homo sapiens); assay: Binding affinity to his-tagged CRBN/DDB1/GST-tagged BRD4 (49 to 170 residues)(unknown origin) assessed as ternary complex formation (AUC) incubated for 1 hr by luminescence based Alphascreen assay; type: protein assay
[14] = Effect on NSA2 level in human MV4-11 cells assessed as fold change at 100 nM measured after 4 hrs; type: functional
[15] = Effect on AURKA level in human MV4-11 cells assessed as fold change at 100 nM measured after 4 hrs; type: functional
[16] = Effect on PLAU level in human MV4-11 cells assessed as fold change at 100 nM measured after 4 hrs; type: functional
[17] = Downregulation of BRD2 protein level in human MV4-11 cells at 100 nM incubated for 4 hrs relative to control; type: functional
[18] = target: T3, Protein cereblon/Bromodomain-containing protein 2 (Homo sapiens) (UniProt P25440+Q96SW2); assay: PROTAC activity at CRBN/Hibit-tagged CRISPR BRD2 (unknown origin) expressed in HEK293 cells coexpressing LgBiT assessed as degradation of BRD2 by […] glo-max assay; type: cell-based
[19] = Effect on FGL2 level in human MV4-11 cells assessed as fold change at 100 nM measured after 4 hrs; type: functional
[20] = Effect on NOP53 level in human MV4-11 cells assessed as fold change at 100 nM measured after 4 hrs; type: functional
[21] = Effect on TP53 level in human MV4-11 cells assessed as fold change at 100 nM measured after 4 hrs; type: functional
[22] = target: T2, Protein cereblon/Bromodomain-containing protein 4; assay: PROTAC activity at CRBN/Hibit-tagged CRISPR BRD4 (unknown origin) expressed in HEK293 cells co-expressing LgBiT assessed as degradation of BRD4 measured after 18 to 24 hrs by […] glo-max assay; type: cell-based; details: time 18-24 hrs
[23] = target: T2, Protein cereblon/Bromodomain-containing protein 4; assay: PROTAC activity at CRBN/Hibit-tagged CRISPR BRD4 (unknown origin) expressed in HEK293 cells co-expressing LgBiT assessed as degradation of BRD4 by […] glo-max assay relative to control; type: cell-based
[24] = Effect on CCND3 level in human MV4-11 cells assessed as fold change at 100 nM measured after 4 hrs; type: functional
[25] = target: T2, Protein cereblon/Bromodomain-containing protein 4; assay: PROTAC activity at CRBN/Hibit-tagged CRISPR BRD4 (unknown origin) expressed in HEK293 cells co-expressing LgBiT assessed as degradation of BRD4 by […] glo-max assay; type: cell-based
[26] = target: T3, Protein cereblon/Bromodomain-containing protein 2 (Homo sapiens); assay: PROTAC activity at CRBN/Hibit-tagged CRISPR BRD2 (unknown origin) expressed in HEK293 cells coexpressing LgBiT assessed as degradation of BRD2 measured after 10 to 14 hrs by […] glo-max assay; type: cell-based; details: time 10-14 hrs
[27] = Effect on CCNF level in human MV4-11 cells assessed as fold change at 100 nM measured after 4 hrs; type: functional
[28] = Stability in mouse plasma assessed as half life by UPLC-MS/MS analysis; type: ADME, cell-free
[29] = Effect on MYC level in human MV4-11 cells assessed as fold change at 100 nM measured after 4 hrs; type: functional
MV4-11 [30] = assay: Cytotoxicity against human MV4-11 cells assessed as reduction in cell viability incubated for 72 hrs by cell-titer glo assay; type: functional, cell-based; details: MV4-11, 72 h
[31] = Effect on ZBTB21 level in human MV4-11 cells assessed as fold change at 100 nM measured after 4 hrs; type: functional
[32] = Effect on BRD4 level in human MV4-11 cells assessed as fold change at 100 nM measured after 4 hrs; type: functional
[33] = target: T2, Protein cereblon/Bromodomain-containing protein 4; assay: PROTAC activity at CRBN/Hibit-tagged BRD4 (unknown origin) expressed in HEK293 cells co-expressing LgBiT assessed as degradation rate incubated for 24 hrs by […] glo-max assay; type: cell-based
HD-MB03 = assay: Cytotoxicity against human HD-MB03 cells assessed as reduction in cell viability incubated for 72 hrs by cell-titer glo assay; type: functional, cell-based; details: HD-MB03, 72 h
[34] = Effect on RNF166 level in human MV4-11 cells assessed as fold change at 100 nM measured after 4 hrs; type: functional
[35] = target: T4, Protein cereblon/Bromodomain-containing protein 3 (Homo sapiens) (UniProt Q15059+Q96SW2); assay: PROTAC activity at CRBN/Hibit-tagged CRISPR BRD3 (unknown origin) expressed in HEK293 cells co-expressing LgBiT assessed as degradation of BRD3 by […] glo-max assay relative to control; type: cell-based
[36] = Downregulation of BRD3 protein level in human MV4-11 cells at 100 nM incubated for 4 hrs relative to control; type: functional
[37] = Permeability in MDCK-II cells incubated for 1 hr by UPLC/MS/UV analysis; type: ADME, cell-based, Canis lupus familiaris; details: dog, read-out: permeability
[38] = target: T3, Protein cereblon/Bromodomain-containing protein 2 (Homo sapiens); assay: PROTAC activity at CRBN/Hibit-tagged CRISPR BRD2 (unknown origin) expressed in HEK293 cells coexpressing LgBiT assessed as degradation of BRD2 by […] glo-max assay relative to control; type: cell-based
[39] = Effect on BRD3 level in human MV4-11 cells assessed as fold change at 100 nM measured after 4 hrs; type: functional
[40] = target: T4, Protein cereblon/Bromodomain-containing protein 3 (Homo sapiens); assay: PROTAC activity at CRBN/Hibit-tagged CRISPR BRD3 (unknown origin) expressed in HEK293 cells co-expressing LgBiT assessed as degradation of BRD3 by […] glo-max assay; type: cell-based
[41] = Effect on FYTTD1 level in human MV4-11 cells assessed as fold change at 100 nM measured after 4 hrs; type: functional
[42] = target: T4, Protein cereblon/Bromodomain-containing protein 3 (Homo sapiens); assay: PROTAC activity at CRBN/Hibit-tagged CRISPR BRD3 (unknown origin) expressed in HEK293 cells co-expressing LgBiT assessed as degradation of BRD3 measured after 13 to 16 hrs by […] glo-max assay; type: cell-based; details: time 13-16 hrs
[43] = Effect on PLK1 level in human MV4-11 cells assessed as fold change at 100 nM measured after 4 hrs; type: functional
[44] = Effect on ZFP36L2 level in human MV4-11 cells assessed as fold change at 100 nM measured after 4 hrs; type: functional
[45] = AUC last in female CD1 mouse at 10 mg/kg, po measured upto 24 hrs by LC-MS/MS analysis; type: ADME, organism-based; details: in vivo
MV4-11 [46] = assay: Upregulation of ZBTB21 level in human MV4-11 cells at 100 nM incubated for 30 mins; type: functional, cell-based
MV4-11 [47] = assay: Upregulation of MIER1 level in human MV4-11 cells at 100 nM incubated for 30 mins; type: functional, cell-based

## Cc1sc2c(c1C)C(c1ccc(Cl)cc1)=N[C@@H](CC(=O)NCCCCCNC(=O)COc1ccc(C3CCC(=O)NC3=O)cc1)c1nnc(C)n1-2 (stereo partly drawn)
[1]
  AUC: 298000
[2]
  half-life: 2.4 min
[3]
  DC50: 25000 pM
[4]
  Emax: 75.7%
[5]
  half-life: 25.8 min
[6]
  solubility kinetic: 24.4 µM (≈ 17.8 µg/mL)
HEK293
  Activity: Non-toxic

## Cc1sc2c(c1C)C(c1ccc(Cl)cc1)=N[C@@H](CC(=O)N1CCC(CN3CCN(c4ccc5c(c4)C(=O)N(C4CCC(=O)NC4=O)C5=O)CC3)CC1)c1nnc(C)n1-2 (stereo partly drawn)
[7]
  fold change (FC): -1.17
[8]
  Activity: 90%
[9]
  fold change (FC): -1.24
[10]
  Activity: Active
[11]
  Cmax: 1160 ng/mL
[12]
  fold change (FC): -3.3
[13]
  Activity: Active
[14]
  fold change (FC): -1.1
[15]
  fold change (FC): -0.95
[16]
  fold change (FC): -1.1
[17]
  Activity: 90%
[18]
  Activity: Active
[19]
  fold change (FC): -1
[20]
  fold change (FC): -0.88
[2]
  half-life: 9.6 min
[21]
  fold change (FC): 1.91
[22]
  Activity: Active
[23]
  Activity: > 90%
[24]
  fold change (FC): -0.9
[25]
  Activity: Active
[26]
  Activity: Active
[3]
  DC50: 1080 pM
[27]
  fold change (FC): -1.64
[28]
  half-life: 1070 min
[29]
  fold change (FC): -1.29
MV4-11 [30]
  IC50: 820 pM
[31]
  fold change (FC): -0.06
[32]
  fold change (FC): -4.11
[33]
  Activity: 0.204 fRLU/hr
HD-MB03
  IC50: 9290 pM
[34]
  fold change (FC): -1.26
[35]
  Activity: > 95%
[36]
  Activity: 90%
[37]
  Papp at 1 h: 0.79 ×10⁻⁶ cm/s
[38]
  Activity: > 95%
[4]
  Emax: 95.5%
[39]
  fold change (FC): -4.09
[6]
  solubility kinetic: 10.5 µM (≈ 8.64 µg/mL)
[40]
  Activity: Active
[41]
  fold change (FC): -1.73
[42]
  Activity: Active
HEK293
  Activity: Non-toxic
[43]
  fold change (FC): -0.79
[44]
  fold change (FC): -1.07
[45]
  AUC(0-t) at 24 h: 3320 ng·h/mL

## Cc1sc2c(c1C)C(c1ccc(Cl)cc1)=N[C@@H](CC(=O)N1CCC(CN3CCN(c4ccc5c(c4)oc(=O)n5C4CCC(=O)NC4=O)CC3)CC1)c1nnc(C)n1-2 (stereo partly drawn)
[7]
  fold change (FC): -1.14
[8]
  Activity: 90%
[9]
  fold change (FC): -1.17
[10]
  Activity: Active
[11]
  Cmax: 70 ng/mL
[12]
  fold change (FC): -3.2
[13]
  Activity: Active
[14]
  fold change (FC): -1.09
[15]
  fold change (FC): -0.94
[16]
  fold change (FC): -1.13
[17]
  Activity: 90%
[18]
  Activity: Active
[19]
  fold change (FC): -0.81
[20]
  fold change (FC): -0.92
[21]
  fold change (FC): 1.94
[22]
  Activity: Active
MV4-11 [46]
  Activity: Active
[23]
  Activity: > 90%
MV4-11 [47]
  Activity: Active
[24]
  fold change (FC): -1.03
[25]
  Activity: Active
[26]
  Activity: Active
[3]
  DC50: 250 pM
[27]
  fold change (FC): -1.74
[28]
  half-life: 822 min
[29]
  fold change (FC): -2.38
MV4-11 [30]
  IC50: 40 pM
[31]
  fold change (FC): -1.77
[32]
  fold change (FC): -3.75
[33]
  Activity: 0.395 fRLU/hr
HD-MB03
  IC50: 380 pM
[34]
  fold change (FC): -0.64
[35]
  Activity: > 95%
[36]
  Activity: 90%
[37]
  Papp at 1 h: 1.2 ×10⁻⁶ cm/s
[38]
  Activity: > 95%
[4]
  Emax: 94%
[39]
  fold change (FC): -4.05
[6]
  solubility kinetic: 14.8 µM (≈ 12 µg/mL)
[40]
  Activity: Active
[41]
  fold change (FC): -1.64
[42]
  Activity: Active
HEK293
  Activity: Non-toxic
[43]
  fold change (FC): -0.8
[44]
  fold change (FC): -1.14
[45]
  AUC(0-t) at 24 h: 181 ng·h/mL

— ChEMBL document CHEMBL6121036, “Evaluation of Cereblon-Directing Warheads for the Development of Orally Bioavailable PROTACs” (J Med Chem, 2025)
